In PubChem BioAssay AID1959 (Broad Institute, 2009):
Calls of active or inactive are those of the source.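 The calls were made as follows: active = growth-inhibition EC50 no more than tenfold above the top tested dose; inconclusive = flat fit between 30% and 70% inhibition, or unreliable fit; inactive = EC50 more than tenfold above the top tested dose.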

tested on: E. coli NEB5alpha growth, BacTiter-Glo luminescence, 4 h; assay: antibacterial activity against E. coli NEB5alpha – luminescence, counter-screen for MEX-5/POS-1 RNA-binding inhibitor project, dose response (AID 1959);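 also: pUC19-transformed ampicillin-resistant cells grown in LB with ampicillin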

| Structure (SMILES) | EC50 |
| --- | --- |
| Cc1[nH][nH]c(=O)c1C(c1ccc(-c2ccccc2C(=O)O)o1)c1c(C)[nH][nH]c1=O | > 11 µM (inactive) |
| Cc1ccc2ccc(C3C(=O)c4ccccc4C3=O)nc2c1 | > 11 µM (inactive) |
| Cc1ccc(C(=O)N/C(=C\c2ccc(-c3ccccc3[N+](=O)[O-])o2)C(=O)NCCCN(C)C)cc1 | > 11 µM (inactive) |
| Cn1cc(C2=C(c3ccc(Cl)cc3Cl)C(=O)NC2=O)c2ccccc21 | > 11 µM (inactive) |
| N=C1/C(=C\c2ccc(SCc3ccco3)o2)C(=O)N=C2SC=NN12 | > 11 µM (inactive) |
| COc1cccc(C2(O)CCN(CC(=O)Nc3nc(C)cs3)CC2)c1 | > 11 µM (inactive) |
| Cc1c(C(=O)O)cccc1-n1c(C)cc(/C=N/NC(=O)c2cc3ccccc3o2)c1C | > 11 µM (inactive) |
| O=C1/C(=C/c2ccc(O)c(O)c2)SC(=S)N1Nc1ccccc1 | > 11 µM (inactive) |
| Cc1ccc2c(c1)C1C=CCC1C(C(=O)NCCCN1CCOCC1)N2 (stereo not given) | > 11 µM (inactive) |
| Nc1ccc2nc(-c3ccccc3)c(-c3ccccc3)nc2c1 | > 11 µM (inactive) |
| C(#Cc1ccc2c(c1)COc1c3ccccc3nn1-2)c1ccccc1 | > 11 µM (inactive) |
| COC(=O)C1=NN(C(=O)c2ccc(C)cc2)C(O)(c2ccc(Cl)cc2)C1 (stereo not given) | > 11 µM (inactive) |
| NC(=O)c1sc2nnc(-c3ccccc3)c(-c3ccccc3)c2c1N | > 11 µM (inactive) |
| Cc1cc(/C=C2\C(=O)NC(=O)N(Cc3ccccc3)C2=O)c(C)n1C1CC1 | > 11 µM (inactive) |
| CCOC(=O)N1CCN(CC(=O)c2ccc(O)cc2O)CC1 | > 11 µM (inactive) |
| O=C(O)c1cccc(-n2cccc2/C=C2\NC(=O)N(Cc3ccc(F)cc3)C2=O)c1 | > 11 µM (inactive) |
| Oc1[nH]c2ccccc2c1N=Nc1cccc(Cl)c1 | > 11 µM (inactive) |
| CC(=O)N(C1=C(Cl)C(=O)c2ccccc2C1=O)C1CCCCC1 | > 11 µM (inactive) |
| O=C(O)C1Nc2ccc(Br)cc2C2C=CCC12 (stereo not given) | > 11 µM (inactive) |
| C=CCOc1ccc(C2C(C(=O)c3cccs3)=C(O)C(=O)N2c2nnc(C)s2)cc1 (stereo not given) | > 11 µM (inactive) |
| COc1[nH]c(/N=C/c2ccccc2)c(C#N)c1C#N | > 11 µM (inactive) |
| CN1CCc2cc3c(c4c2C1Cc1ccccc1-4)OCO3 (stereo not given) | > 11 µM (inactive) |
| O=C(N/N=C/c1cc(Cl)cc([N+](=O)[O-])c1O)c1ccc2c(c1)OCO2 | > 11 µM (inactive) |
| Cn1c(=O)[nH]c2cc(Cl)cnc21 | > 11 µM (inactive) |

| Structure (SMILES) | EC50 |
| --- | --- |
| Oc1ccc2ccccc2c1C=Nc1ccc(N2CCOCC2)cc1 | > 11 µM (inactive) |
| CS(=O)(=O)Nc1nc2n(n1)C(c1ccccc1)C=C(c1ccc(Br)cc1)N2 (stereo not given) | > 11 µM (inactive) |
| CCCCn1c(O)c(/C=C2\C=Nc3ccccc32)c(=O)[nH]c1=O | > 11 µM (inactive) |
| O=C(/C=C/c1ccco1)NC(=S)Nc1cccc(C(=O)O)c1 | > 11 µM (inactive) |
| Cc1cccn2c(=O)c3cc(S(=O)(=O)c4ccccc4)c(=N)n(Cc4cccnc4)c3nc12 | > 11 µM (inactive) |
| Cc1cc(/C=C2\SC(=S)N(Cc3ccco3)C2=O)c(C)n1-c1cccnc1 | > 11 µM (inactive) |
| N#CC1=C(N)C(C#N)(C#N)C(c2cccnc2)C2COCC=C12 (stereo not given) | > 11 µM (inactive) |
| CCn1c(=N)c(S(=O)(=O)c2ccccc2)cc2c(=O)n3ccccc3nc21 | > 11 µM (inactive) |
| COC/C=C/C1=CC2=CC(=O)C(C)(OC(=O)c3cccs3)C(=O)C2=CO1 (stereo not given) | > 11 µM (inactive) |
| COc1c(O)cc2oc(-c3ccc(O)c(O)c3)cc(=O)c2c1O | > 11 µM (inactive) |
| COc1ccc(-n2nc3c(=O)[nH][nH]c3cc2=O)cc1 | > 11 µM (inactive) |
| O=c1[nH]c(/C=C\c2ccc(O)c(O)c2)nc(O)c1[N+](=O)[O-] | > 11 µM (inactive) |
| COc1ccc(CNC(=O)COC(=O)c2cc(-c3ccc(Cl)s3)nc3ccccc23)cc1 | > 11 µM (inactive) |
| COc1ccc(/C=N/NC(=O)c2ccc(N(C)S(=O)(=O)c3ccccc3)cc2)cc1 | > 11 µM (inactive) |
| CCn1c(SCC(=O)Nc2cc(C)on2)nnc1-c1ccc(OC)cc1 | > 11 µM (inactive) |
| CCOC(=O)Cc1csc(NC(=O)c2sc3nc4cc(C)ccc4cc3c2N)n1 | > 11 µM (inactive) |
| O=C(NNC(=O)c1cnccn1)c1cccc([N+](=O)[O-])c1 | > 11 µM (inactive) |
| CCOc1ccc(/C=c2\sc3nc(-c4ccco4)nn3c2=O)cc1OCC | > 11 µM (inactive) |
| CCC(C)[C@@H](N)C(=O)N/N=C/c1cccc2nccnc12 (stereo not given in full) | > 11 µM (inactive) |
| Cc1cc2nc3ccc(N(C)C)cc3nc2cc1N | > 11 µM (inactive) |
| O=C(c1cccs1)c1ccc(-c2cccs2)s1 | > 11 µM (inactive) |
| Cc1ccc(-n2c(=O)c(C#N)cc3c(=O)n4ccccc4nc32)cc1C | > 11 µM (inactive) |
| CC(=O)N1CCc2c(sc(NC(=O)C3CCCN3S(=O)(=O)c3cccs3)c2C(N)=O)C1 (stereo not given) | > 11 µM (inactive) |
| Oc1ccc(NC(=S)N=Nc2c(O)[nH]c3ccccc23)cc1 | > 11 µM (inactive) |

| Structure (SMILES) | EC50 |
| --- | --- |
| CC1(C)Cc2c(cnn2-c2cccc(F)c2)C(NC(=O)CSc2ccccn2)C1 (stereo not given) | > 11 µM (inactive) |
| CCOC(=O)/C=c1\s/c(=C\c2ccc(C#N)cc2)c(=O)n1CC(=O)NCc1ccco1 | > 11 µM (inactive) |
| COc1ccc(NS(=O)(=O)c2ccc3c(c2)[C@H]2C=CC[C@H]2[C@@H](c2ccc(C(=O)O)cc2)N3)cc1 | > 11 µM (inactive) |
| Cc1ccc(C(=O)CSc2nc3c([nH]2)c(=O)n(C)c(=O)n3C)cc1 | > 11 µM (inactive) |
| Cc1cc(-c2ccccc2)nc(N/N=C/c2ccc(O)cc2O)n1 | > 11 µM (inactive) |
| CN(C)c1ccc(/C=C/c2nc3ccccc3s2)cc1 | > 11 µM (inactive) |
| Cc1ccc(S(=O)(=O)/N=C2\C=C(Nc3cccc(C(=O)O)c3)C(=O)c3ccccc32)c(C)c1 | > 11 µM (inactive) |
| Cc1c(NC(=O)CSc2ccc(Cl)cc2)cccc1-c1nc2cc(Cl)ccc2o1 | > 11 µM (inactive) |
| CC(C)N1CCc2c(sc(NC(=O)c3ccc4ccccc4c3)c2C(N)=O)C1 | > 11 µM (inactive) |
| CC(=O)Nc1ccc(S(=O)(=O)NNC(=O)C(=O)NNc2ccccn2)cc1 | > 11 µM (inactive) |
| O=C(O)C(=O)/C(=C\c1ccc(Cl)cc1)c1ccc2ccccc2n1 | > 11 µM (inactive) |
| C=CCSc1nnc(N2C(=O)C(O)=C(C(=O)c3ccco3)C2c2ccccc2F)s1 (stereo not given) | > 11 µM (inactive) |
| Cc1ccn2cc(-c3ccc(O)c(O)c3)nc2c1 | > 11 µM (inactive) |
| CCCN1CCc2cc(O)cc3c2[C@H]1Cc1ccc(O)c(O)c1-3 | > 11 µM (inactive) |
| Oc1c(C=Nc2ccccc2Cl)[nH]c2ccccc12 | > 11 µM (inactive) |
| Cc1ccc(C)n1-c1ccc(C(=O)O)cc1 | > 11 µM (inactive) |
| Cc1ccc(N/C=C/C(=O)c2sc(-c3ccccc3)nc2C)cc1 | > 11 µM (inactive) |
| N=c1c(S(=O)(=O)c2ccc(Br)cc2)cc2c(=O)n3ccccc3nc2n1C1CCCCC1 | > 11 µM (inactive) |
| Cc1cc(/C=C2/C(=O)NC(=O)N(c3ccc(Br)cc3)C2=O)c(C)n1C | > 11 µM (inactive) |
| COc1ccccc1C1C(C(C)=O)=C(C)N=c2s/c(=C\c3cc(OC)c(OC)c(OC)c3)c(=O)n21 (stereo not given) | > 11 µM (inactive) |
| COc1cc(C(c2c(C)[nH][nH]c2=O)c2c(C)[nH][nH]c2=O)cc([N+](=O)[O-])c1O | > 11 µM (inactive) |
| COc1cc(C(=O)NC(c2ccccc2)c2ccccc2)cc(OC)c1C | > 11 µM (inactive) |
| COc1ccccc1NC(=S)NNC(=O)c1cc(C)n(C)n1 | > 11 µM (inactive) |
| COc1ccccc1N1C(=O)C2C(C(=O)c3ccccc3)=NN(c3ccc(C)cc3)C2C1=O (stereo not given) | > 11 µM (inactive) |

| Structure (SMILES) | EC50 |
| --- | --- |
| O=C1CCC/C(=N/NC(=O)c2sc3ccccc3c2Cl)C1 | > 11 µM (inactive) |
| COc1ccc(C2=CC3=C(Br)C(=O)C(C)(OC(=O)c4ccco4)C(=O)C3=CO2)cc1 (stereo not given) | > 11 µM (inactive) |
| O=C(/C=C/N1CCOCC1)c1ccc(-c2ccccc2)cc1 | > 11 µM (inactive) |
| O=C(NCc1cccs1)C1CCN(S(=O)(=O)c2ccc(Br)s2)CC1 | > 11 µM (inactive) |
| CCN(CC)c1ccc(N=Cc2c(O)n(-c3ccccc3)c(=O)[nH]c2=O)cc1 | > 11 µM (inactive) |
| CCCCCCn1c(=O)[nH]c2nc3cc(N)ccc3nc2c1=O | > 11 µM (inactive) |
| Cc1n[nH]c(C)c1S(=O)(=O)N1CCCC(C(=O)Nc2ccc(Br)cc2)C1 (stereo not given) | > 11 µM (inactive) |
| COc1cc(C(c2c(C(=O)O)[nH]c3ccccc23)c2c(C(=O)O)[nH]c3ccccc23)ccc1OCc1ccccc1 | > 11 µM (inactive) |
| c1ccc(-c2cn3nc(-c4ccccc4)c(-c4ccccc4)nc3n2)cc1 | > 11 µM (inactive) |
| CCC(C)n1c(O)c(/C=N/Nc2nc3c(c(=O)n(C)c(=O)n3C)n2C)c(=O)[nH]c1=S (stereo not given) | > 11 µM (inactive) |
| N#CC(C#N)=Cc1ccc(-c2ccccc2)o1 | > 11 µM (inactive) |
| Cc1sc(-n2c(C)cc(C=C3C(=O)NC(=O)NC3=O)c2C)c(C#N)c1C | > 11 µM (inactive) |
| Cc1cc(/C=C(\C#N)C(=O)Nc2ccccc2)c(C)n1-c1ccc(C(=O)O)cc1 | > 11 µM (inactive) |
| Cc1ccc(NC(=O)CSc2nnc(N)s2)cc1S(=O)(=O)N1CCOCC1 | > 11 µM (inactive) |
| CCOC(=O)C1Nc2ccc(C)cc2C2C=CCC12 (stereo not given) | > 11 µM (inactive) |
| CC(C)Sc1nsc2nc(=O)c(/C=C3\C=Nc4ccccc43)c(N)n12 | > 11 µM (inactive) |
| O=C(O)CSc1cc(NS(=O)(=O)c2ccc(Cl)cc2)c2ccccc2c1O | > 11 µM (inactive) |
| O=C(/C=C/c1ccco1)NC(=S)NNC(=O)c1ccco1 | > 11 µM (inactive) |
| C=CCN1C(=O)NC(=O)/C(=C/c2ccc(OC)c(CSc3ccccn3)c2)C1=O | > 11 µM (inactive) |
| COc1ccc(CCn2c(O)c(/C=N/NC(=O)c3ccncc3)c(=O)[nH]c2=O)cc1OC | > 11 µM (inactive) |
| O=C(NN1C(=O)c2ccccc2NC1c1ccccn1)c1ccc([N+](=O)[O-])cc1 (stereo not given) | > 11 µM (inactive) |
| O=C(CCN1C(=O)C2CC=C(Cl)CC2C1=O)N1CCCCC1 (stereo not given) | > 11 µM (inactive) |
| O=C(NCCO)c1ccc2nc(-c3ccco3)c(-c3ccco3)nc2c1 | > 11 µM (inactive) |
